Assay results from publication PMC11908448 (Bioorganic chemistry, 2019).
Where two headings read alike, the source gives them in different places.

How the values were obtained:
[1] = target: T1, Bovine XO (Bos taurus, UniProt P80457); test: Determination of inhibitory potency against XO activity; type: biochemical
[2] = target: T1, Bovine XO; settings: cited from earlier work

T1 sequence (P80457 whole entry): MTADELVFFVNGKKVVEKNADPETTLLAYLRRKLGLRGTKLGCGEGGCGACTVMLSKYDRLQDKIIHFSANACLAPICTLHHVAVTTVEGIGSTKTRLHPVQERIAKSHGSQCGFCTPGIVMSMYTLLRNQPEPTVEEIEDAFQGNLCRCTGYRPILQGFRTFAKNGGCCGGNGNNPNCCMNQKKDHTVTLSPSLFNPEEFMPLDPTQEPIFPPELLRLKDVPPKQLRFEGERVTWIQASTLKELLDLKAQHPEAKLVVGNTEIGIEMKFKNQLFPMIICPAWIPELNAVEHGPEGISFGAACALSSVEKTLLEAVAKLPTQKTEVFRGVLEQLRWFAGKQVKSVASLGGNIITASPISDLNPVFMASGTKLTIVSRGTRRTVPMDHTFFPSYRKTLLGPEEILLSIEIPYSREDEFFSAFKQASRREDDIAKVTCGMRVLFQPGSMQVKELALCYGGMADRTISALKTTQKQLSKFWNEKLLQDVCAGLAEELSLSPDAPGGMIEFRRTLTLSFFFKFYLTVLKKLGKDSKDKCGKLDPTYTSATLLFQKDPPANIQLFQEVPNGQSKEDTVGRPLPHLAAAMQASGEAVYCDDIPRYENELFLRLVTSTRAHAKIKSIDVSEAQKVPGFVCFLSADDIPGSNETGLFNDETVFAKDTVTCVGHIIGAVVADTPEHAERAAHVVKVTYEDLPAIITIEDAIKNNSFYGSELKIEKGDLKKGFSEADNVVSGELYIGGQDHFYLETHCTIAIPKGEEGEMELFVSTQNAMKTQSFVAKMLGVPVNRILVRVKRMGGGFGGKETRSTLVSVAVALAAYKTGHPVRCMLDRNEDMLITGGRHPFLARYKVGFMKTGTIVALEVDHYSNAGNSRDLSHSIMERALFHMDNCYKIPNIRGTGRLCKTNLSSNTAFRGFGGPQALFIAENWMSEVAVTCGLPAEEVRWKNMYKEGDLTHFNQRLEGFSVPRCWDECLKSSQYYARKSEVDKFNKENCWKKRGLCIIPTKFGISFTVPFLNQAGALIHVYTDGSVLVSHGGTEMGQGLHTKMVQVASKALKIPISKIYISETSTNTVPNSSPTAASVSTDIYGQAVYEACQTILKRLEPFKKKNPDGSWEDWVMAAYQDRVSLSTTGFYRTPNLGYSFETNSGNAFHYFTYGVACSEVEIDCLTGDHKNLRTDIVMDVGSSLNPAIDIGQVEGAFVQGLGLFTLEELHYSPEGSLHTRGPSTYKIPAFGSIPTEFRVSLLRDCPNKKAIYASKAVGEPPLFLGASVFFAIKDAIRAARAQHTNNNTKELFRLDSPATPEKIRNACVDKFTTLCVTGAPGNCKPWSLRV

SMILES | IC50 [1] [µM] | mode of XO inhibition ([2]; kinetic studies) | XO inhibitory potency (in words) ([2]; literature statement) | XO inhibitory potency (in words) ([1]; reported by others [41] or measured by the authors)
O=C(/C=C/c1ccc(O)c(O)c1)OCCc1ccccc1 [Compound 1, (E)-phenethyl 3-(3,4-dihydroxyphenyl)acrylate] | 3.9 | competitive inhibitor | low micromolar range | 
O=C(/C=C/c1ccc(O)c(O)c1)Oc1ccccc1 [Compound 8, (E)-phenyl 3-(3,4-dihydroxyphenyl)acrylate] | ~0.25 |  |  | 
Cc1nc(-c2ccc(OCC(C)C)c(C#N)c2)sc1C(=O)O [febuxostat, Febuxostat, reference compound] |  |  |  | low nanomolar or subnanomolar range
